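These data come from cells grown in 96-well plates and exposed to compound for 48 hours at five concentrations. Here, GI50 denotes the concentration required for 50% inhibition of growth.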 Active and inactive are the calls of the source. Rule as the data show it: active = GI50 up to about 1.1 µM and inactive = higher.

Here are results for three molecules from ChEMBL document CHEMBL1201862, “PubChem BioAssay data set” (2004).

Some test systems named below: OVCAR-4; 786-0; SNB-78; A549; COLO 205; ACHN; NCI-H226; SF-268; M14; HOP-92; SW-620; SNB-75; EKVX; RXF 393; A498; HL-60; T47D; MDA-MB-231; DU-145; Hs-578T.
What all share (test): NCI tumour cell line growth inhibition, 48 h

For the molecule `Cn1ncc2ccc3[nH]c4ccccc4c(=O)c3c21`, the GI50 with OVCAR-4 was 23.9 µM (inactive); with 786-0 it was 36.5 µM (inactive); in the experiment with SNB-78 it was 27.7 µM (inactive); with A549, 20.2 µM (inactive); in the experiment with COLO 205, 26.4 µM (inactive); in the experiment with ACHN, 22.6 µM (inactive). Further, the GI50 is 11.6 µM (inactive) in the experiment with NCI-H226; 28.4 µM (inactive) in the experiment on SF-268; 39.2 µM (inactive) with M14; 37.8 µM (inactive) in the experiment on HOP-92; 26.2 µM (inactive) in the experiment on SW-620; 19.9 µM (inactive) with SNB-75. In addition, the GI50 in the experiment on EKVX was 42 µM (inactive); in the experiment on RXF 393, 14.7 µM (inactive); in the experiment on A498, 22.4 µM (inactive); in the experiment with HL-60, 27.9 µM (inactive).

Consider `COc1cc(C(C)c2cc3c(cc2OCCOCCOc2cc4c(cc2C(C)c2cc(OC)c(OC)c(OC)c2)OCO4)OCO3)cc(OC)c1OC` (configuration not stated), for which the GI50 in the experiment with OVCAR-4, in the experiment with 786-0, in the experiment on SNB-78, in the experiment on A549, in the experiment with COLO 205 and with ACHN was > 10 µM (inactive) throughout. Moreover, the GI50 with NCI-H226 was > 10 µM (inactive); in the experiment on SF-268, > 10 µM (inactive); in the experiment on M14 it was > 10 µM (inactive); in the experiment with HOP-92, 16.4 µM (inactive); in the experiment with SW-620 it was > 10 µM (inactive); in the experiment on SNB-75 it was 19.1 µM (inactive). Also, the GI50 with EKVX, in the experiment with RXF 393, with A498 and in the experiment with HL-60 was > 10 µM (inactive) in each case.

On to `Nc1ccc(S(=O)(=O)Nc2cnc3ccccc3n2)cc1` [SULFAQUINOXALINE], for which the GI50 with T47D, in the experiment with MDA-MB-231, with OVCAR-4, in the experiment with 786-0, in the experiment with DU-145 and with SNB-78 was > 100 µM (inactive) each time. The GI50 in the experiment with A549 was > 100 µM (inactive); in the experiment with COLO 205, > 100 µM (inactive); with ACHN, > 100 µM (inactive); with NCI-H226, > 100 µM (inactive); in the experiment on SF-268 it was > 87.9 µM (inactive); in the experiment with M14 it was > 100 µM (inactive). For the same molecule, the GI50 with Hs-578T is < 0.01 µM (active); in the experiment on HOP-92, > 100 µM (inactive); with SW-620, > 100 µM (inactive); in the experiment on SNB-75, 26.7 µM (inactive); with EKVX, > 100 µM (inactive); with RXF 393, > 100 µM (inactive). In addition, the GI50 in the experiment on A498 and with HL-60 was > 100 µM (inactive) throughout.
